Results published in patent US7731992B2, “Method of inhibiting aromatase with specific dietary supplements” (Triarco Industries, Inc., priority 2003, dated 2010).
Where “and” joins values, the source holds several entries; their conditions need not be identical. Equal entries are not always repeated. Where two headings read alike, the source gives them in different places.

Assays:
[1] = format: physicochemical
Experimental: The test solutions were prepared by adding the test substances to separate aliquots of dimethyl sulfoxide (DMSO). The target concentration of each test substance was 50 mg/ml. […] Mild heat and sonication were applied to aid in obtaining solutions of the other substances at the desired concentration. The black cohosh powder and echinacea were also centrifuged prior to the use of the supernatant in the assay to sediment any particulate matter present in the solutions.
None were successful. […] Insoluble material that would not sediment when centrifuged was still present at 2 mg/ml, forming a thin, whitish layer on the surface of the solution. This particulate material was avoided when sampling the sterol solution for the assay.

human aromatase (CYP19) = target: T1, human aromatase (CYP19) (Homo sapiens, UniProt P11511); assay: Inhibition of CYP19-catalyzed dealkylation of DBF (fluorescence, 96 well plates); format: biochemical
T1 construct: purchased Gentest P260; host or cells: baculovirus-infected insect cells (microsomes)
T1 sequence (P11511 1-503): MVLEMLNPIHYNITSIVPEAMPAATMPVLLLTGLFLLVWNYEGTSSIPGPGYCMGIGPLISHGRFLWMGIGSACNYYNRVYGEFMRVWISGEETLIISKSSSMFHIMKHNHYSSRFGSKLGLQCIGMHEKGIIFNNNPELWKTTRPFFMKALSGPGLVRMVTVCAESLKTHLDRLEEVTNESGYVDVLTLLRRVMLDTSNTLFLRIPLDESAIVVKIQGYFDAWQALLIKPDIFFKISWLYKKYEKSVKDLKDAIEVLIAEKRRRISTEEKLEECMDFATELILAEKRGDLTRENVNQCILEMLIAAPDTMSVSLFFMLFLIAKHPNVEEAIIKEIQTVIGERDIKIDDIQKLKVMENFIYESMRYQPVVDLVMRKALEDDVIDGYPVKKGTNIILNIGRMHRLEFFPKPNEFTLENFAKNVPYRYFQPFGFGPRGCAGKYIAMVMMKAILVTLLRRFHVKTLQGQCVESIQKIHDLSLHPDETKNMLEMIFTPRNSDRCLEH
Experimental: The inhibition of aromatase activity was measured in 96 well plates with cDNA-derived enzymes in microsomes prepared from baculovirus-infected insect cells. Dibenzylfluorescien (DBF) was used as a reporter substrate for the activity of the aromatase enzyme.
In the inhibition study, the 50 percent inhibitory concentration (IC50) for each substance was determined with the enzyme. A single concentration of DBF, below the apparent Km, and multiple test substance concentrations, separated by approximately ½ log, were tested in duplicate. Metabolism of the model substrate was assayed by the production of fluorescein metabolite, which was detected and measured using fluorescence.
The amount of solvent during the assay incubations was the same for all test substance concentrations.
As noted above, the assay was conducted in 96 well microplates. Initially, solutions of the substrate in acetonitrite at a concentration equal to the km were prepared. The inhibition of the CYP19-catalyzed dealkylation of DBF was determined, using 4-hydroxyandrostenedione, a known inhibitor of CYP19, as a positive control, and sulfaphenazone, as a negative control. The final concentration of CYP19 (Gentest catalog number P260) was 0.4 pmol/well, and the final concentration of microsomal protein was normalized to 0.25 mg/ml by the addition of the insect cell control protein. The final concentration of substrate was 0.2 μM, and the final concentration of the potassium phosphate buffer was 50 μM. The incubation time was 30 minutes.
A row of 12 wells was used in each test, and each test of a test substance/substrate combination was duplicated in a second row. In each test, wells 1 to 8 contained serial 1:3 dilutions of the inhibitors in which the maximum concentration of phytosterols was 10 μg/ml, and that of the other test substances was 250 μg/ml, assuming complete solubilization at the desired concentrations, i.e., 2 mg/ml for the phytosterols and 50 mg/ml for the other test substances. Wells 9 and 10 contained no inhibitor, and wells 11 and 12 were blanks in which stop solution was added before the enzyme to test for background fluorescence.
The plates were then warmed to 37° C., and incubation was initiated by the addition of the pre-warmed enzyme, additional insect cell control protein in an amount sufficient to provide the desired concentration, and substrate. The final cofactor concentrations were 1.3 μM NADP, 3.3 μM glucose-6-phosphate, and 0.4 U/ml glucose-6-phosphate dehydrogenase. The incubation reactions were stopped after 30 minutes by the addition of 0.075 ml of 2 N NaOH, and fluorescence was measured for each well using a FLUOstar model 403 plate scanner after a post-stop incubation period of about 4 hours. The DBF metabolite fluorescein was measured using an excitation wavelength of about 485 nm and an emission wavelength of about 538 nm.

With Astaxanthin the “Solubility in DMSO (in words)” value [1] was “dissolve completely”, the “IC50 CYP19/DBF” value (human aromatase (CYP19); cDNA-derived enzyme in microsomes from baculovirus-infected insect cells, DBF 0.2 μM, 30 min, duplicate determinations, concentration assumes complete solubilization) was 67 µg/mL and 66 µg/mL and the “Inhibition of aromatase activity (in words)” value (human aromatase (CYP19); summary statement on Table 2) was “most significant inhibition”.
Work on `C[C@]12CCC(=O)C(O)=C1CC[C@@H]1[C@@H]2CC[C@]2(C)C(=O)CC[C@@H]12` [4-Hydroxandrostendione, 4-hydroxyandrostenedione, reference compound] yielded an IC50 (human aromatase (CYP19)) of 11 nM.
Work on `Nc1ccc(S(=O)(=O)Nc2ccnn2-c2ccccc2)cc1` [Sulfaphenazole, reference compound] yielded an IC50 (human aromatase (CYP19); positive and negative control, DBF 0.2 μM, 30 min, duplicate determinations, read-out: IC50 CYP19/DBF (controls)) greater than 10000 nM.
For Phytosterols, the “Solubility in DMSO (in words)” value [1] was “little or no solubility in DMSO”.
